Experimental findings from patent US6916825B2, “Alkylated imidazopyridine derivatives” (Altana Pharma AG, priority 2000, dated 2005) are described below.

Data set [1] has as its system acid secretion of the perfused rat stomach stimulated by pentagastrin. Nature of the data set: Secretion-inhibiting action on perfused rat stomach (pentagastrin-stimulated acid secretion). Conditions: anesthetized CD rats, dose 1 μmol/kg i.v. The class given is in vivo. The text has this:
Testing of the Secretion-inhibiting Action on Perfused Rat Stomach
In table A below, the influence of the compounds according to the invention after intravenous administration is shown on the acid secretion of the perfused rat stomach stimulated by pentagastrin.
The abdomen of anesthetized rats (CD rats, female, 200-250 g; 1.5 g/kg of i.m. urethane) was opened after tracheotomy by a median upper abdominal incision and a PVC catheter was fixed transorally in the esophagus and a further one via the pylorus such that the ends of the tubing just still projected into the gastric lumen. The catheter leading from the pylorus led outwards via a side opening in the right abdominal wall.
After thorough rinsing (about 50-100 ml), a continuous flow of warm physiological NaCl solution (0.5 ml/min, pH 6.8-6.9; Braun-Unita I) was continuously passed through the stomach at 37° C. The pH in the effluent, in each case collected at an interval of 15 minutes, was determined (pH meter 632, glass electrode EA 147; φ=5 mm, Metrohm) and the secreted HCl was determined by titration with a freshly prepared 0.01 N NaOH solution to pH 7 (Dosimat 665 Metrohm).
Gastric secretion was stimulated by continuous infusion of 1 μg/kg (=1.65 ml/h) of i.v. pentagastrin (left femoral vein) about 30 min after the end of the operation (i.e. after determination of 2 preliminary fractions). The substances to be tested were administered intravenously in 1 ml/kg of fluid volume 60 min after the start of the pentagastrin continuous infusion.
The body temperature of the animals was kept at a constant 37.8-38° C. by means of infrared irradiation and heating pads (automatic, step-free control via a rectal temperature sensor).

For orientation: melting point means the temperature, or range, at which the solid turns liquid. `Cc1nc2c3c(ccn2c1C)C(=O)[C@@](C)(O)[C@@H](c1ccccc1)N3` [Example 1, (8S,9R)-2,3,8-Trimethyl-8-hydroxy-9-phenyl-7,8,9,10-tetrahydroimidazo[1,2-h][1,7]naphthyridin-7-one] yielded a melting point of 240 °C.

The compound `Cc1nc2c3c(ccn2c1C)[C@@H](O)[C@@](C)(O)[C@@H](c1ccccc1)N3` [Example 2, (7R,8S,9R)-2,3,8-Trimethyl-7,8-dihydroxy-9-phenyl-7,8,9,10-tetrahydroimidazo[1,2-h][1,7]naphthyridine] yielded a melting point of 180 °C. Moreover, in data set [1], the “Inhibition of acid secretion” value was 100%.

Take `Cc1nc2c3c(ccn2c1C)C(=O)[C@](O)(Cc1ccccc1)[C@@H](c1ccccc1)N3` [Example 3, (8S,9R)-2,3-Dimethyl-8-benzyl-8-hydroxy-9-phenyl-7,8,9,10-tetrahydroimidazo[1,2-h][1,7]naphthyridin-7-one]: the melting point lay within 248 to 251 °C.

`Cc1nc2c3c(ccn2c1C)[C@H](O)[C@](O)(Cc1ccccc1)[C@@H](c1ccccc1)N3` [Example 4, (7S,8S,9R)-2,3-Dimethyl-8-benzyl-7,8-dihydroxy-9-phenyl-7,8,9,10-tetrahydroimidazo[1,2-h][1,7]-naphthyridine] registered a melting point of 115 to 122 °C.

In the case of `CO[C@H]1c2ccn3c(C)c(C)nc3c2N[C@H](c2ccccc2)[C@]1(C)O` [Example 7, (7S,8S,9R)-2,3,8-Trimethyl-7-methoxy-8-hydroxy-9-phenyl-7,8,9,10-tetrahydroimidazo[1,2-h]-[1,7]naphthyridine], the melting point is 190 °C.

In the case of `Cc1nc2c3c(ccn2c1C)[C@@](C)(O)[C@H](O)[C@@H](c1ccccc1)N3` [Example 8, (7R,8R,9R)-2,3,7-Trimethyl-7,8-dihydroxy-9-phenyl-7,8,9,10-tetrahydroimidazo[1,2-h][1,7]-naphthyridine], the melting point fell in the range of 137 to 138 °C. In addition, the “Inhibition of acid secretion” value in data set [1] came out at 100%.

In turn, `C=C1c2ccn3c(C)c(C)nc3c2N[C@H](c2ccccc2)[C@H]1O` [Example 10, (8S,9R)-2,3-Dimethyl-8-hydroxy-7-methylidene-9-phenyl-7,8,9,10-tetrahydroimidazo[1,2-h][1,7]-naphthyridine] had a melting point of 199 to 202 °C. Further, in data set [1], the “Inhibition of acid secretion” value was determined as 100%.

`Cc1nc2c3c(ccn2c1C)[C@@](C)(O)[C@H](O)[C@@H](c1ccccc1)O3` [Example 12, (7R,8R,9R)-2,3,7-Trimethyl-7,8-dihydroxy-9-phenyl-7H-8,9-dihydropyrano[2,3-c]imidazo[1,2-a]-pyridine]: the “Inhibition of acid secretion” value in data set [1] is 100%.
